Assay results as given in patent publication EP3694851B1, “ENVIRONMENTALLY DEGRADABLE QUINOLONE ANTIBIOTICS HAVING A HEMIAMINAL STRUCTURAL UNIT” (priority 2017, dated 2019).
Values after ≈ are worked out from the molar mass of the structure shown.

Assays:
[1] = test system: E. faecalis ATCC 29121, P. aeruginosa ATCC 27853, S. aureus ATCC 29213, E. coli ATCC 25922, S. aureus ATCC 43300, K. pneumoniae ATCC 700603, A. baumanii ATCC …; test: Minimal inhibitory concentrations in various bacterial strains (broth microdilution); assay type: cell-based
Source text: Minimale Hemmkonzentrationen in verschiedenen Bakterienstämmen: Die antibiotische Aktivität wurde mittels Durchführung der Broth-Mikroverdünnungsmethode ermittelt (Cockerill et al., 2012, siehe Literatur). Es wurden die folgenden Bakterienstämme verwendet: Staphylococcus aureus (ATCC 29213), Enterococcus faecalis (ATCC 29212), Escherichia coli (ATCC 25922) und Pseudomonas aeruginosa (ATCC 27853), sowie S. aureus (ATCC 43300), K. pneumoniae (ATCC 700603), A. baumanii (ATCC 19606). Die Bestimmungen der minimalen Hemmkonzentrationen wurden durch zwei unabhängige Laboratorien durchgeführt.
Bakterienzellen wurden bei einer Zelldichte von 2 - 8 × 10^5 cfu/ml in 200 µl Mueller-Hinton-Brothmedium verdünnt. Die Ansätze enthielten eine Verdünnungsreihe der Testsubstanzen. Diese inokulierten 96-well Platten wurden für 18 h bei 36°C inkubiert. Die minimale Hemmkonzentration wurde ermittelt durch visuelle Abschätzung der niedrigsten Konzentration, die die Bakterien vollständig gehemmt hatte.

[2] = Abiotic hydrolysis (pH-dependent, phosphate-buffered saline, HPLC); settings: for Abspaltung des labilen Linkers: Figures 6a and 6b; for Abbau des Hemiaminal-Restes: within 7 days
Protocol: Der pH-Wert wurde auf pH 6, pH 7,4 oder pH 9 eingestellt. Die Ansätze wurden bei 37 °C für pH 6 und 7,4 und bei Raumtemperatur für pH 9 unter Schütteln (250 rpm) für 28 Tage inkubiert. An Tag 0, 1, 7, 14, 21 und 28 wurden Proben (700µL) für die HPLC Analyse entnommen. Der Quotient der Ausgangskonzentration co durch die Konzentration am jeweiligen Zeitpunkt (ct) wurde kalkuliert und als natürlicher Logarithmus gegen die Inkubationszeit aufgetragen.
Eine NUCLEODUR® RP-C18 (CC 125/4 100-5µm C18 ec) Säule und mobile Phasen bestehend aus 0.1 % Ameisensäure in hochreinem Wasser (CH2O2: Solution A) and 100 % Acetonitril (CH3CN: Solution B) wurden verwendet. Die Flußrate wurde auf 0.5 mL min^-1 eingestellt. Die Temperatur des Säulenofens wurde auf 25 °C eingestellt und das Injektionsvolumen betrug 10 µL. […] Die Testsubstanzen wurden durch einen UV/Vis Detektor bei 270 nm detektiert. Die Fließgradientenmethode wurde angewendet wie in Tabelle 1 aufgelistet. Tabelle 1 : Fließgradientenbedingungen zur chromatographischen Analyse der Testsubstanzen

[3] = test system: Vibrio fischeri NRRL-B-11177; test: Luminescence inhibition in V. fischeri (luminescent bacteria test); assay type: cell-based; settings: after cleavage of the linker, compared with Verbindung 1; Figure 5
Source text: Die antibiotische Aktivität in V. fischeri wurden in einem Leuchtbakterientest (LBT) mit Vibrio fischeri NRRL-B-11177 (Hach-Lange GmbH, Düsseldorf, Germany) untersucht. Die Durchführung des LBT erfolgte nach dem modifizierten Protokoll von Menz et al. (2013), siehe Literaturliste.

[4] = Stability test at low pH (Marbofloxacin); assay type: physicochemical
[5] = test system: Humane embryonale Nierenzellen (HEK293); test: Cytotoxicity test in HEK293 cells; assay type: cell-based, human; settings: Figure 3
Protocol: Humane embryonale Nierenzellen (HEK293) wurden in 384-well-Platten mit einer Dichte von 6000 Zellen/well in einem finalen Volumen von 50 µl mit der gewünschten Konzentration der Testsubstanz ausgesät. DMEM mit 10% fötalem Rinderserum (FBS) wurde als Wachstumsmedium verwendet. Die Zellen wurden zusammen mit den Testsubstanzen für 20 h bei 37 °C mit 5% COz inkubiert.

[6] = test system: Escherichia coli K12 ATCC 23716; test: Growth inhibition in E. coli (96-well plate, 4 h at 37°C, absorption at 600 nm); assay type: cell-based; settings: ATCC23716, 4 h, E. coli (ATCC 23716), activity in the range of medium-strength fluoroquinolones, Figure 4
Protocol: Escherichia coli K12 ATCC 23716 wurde von DSMZ GmbH (Braunschweig, Germany) erhalten.
Die Testsubstanzen wurden in Wasser verdünnt und auf einer 96-well-Platte zur Bakteriensuspension (in 2x Bakterienmedium (10 g Pepton and 6 g Fleischextrakt in 1 Liter)) gegeben, so dass die Endkonzentration des Mediums 1x war. Die Platte wurde 4h bei 37°C inkubiert. Die Zelldichte wurde photometrisch durch Messung der Absorption bei 600 nm bestimmt. Die Wachstumshemmung in Prozent der unbehandelten Kontrollen gegen die Konzentration der Testsubstanz aufgetragen.

For `O=C(O)c1cnc2cc(N3CCNCC3)c(F)cc2c1O` [Cip-d-CP, reference compound], the “antibiotische Aktivität (MHK) im Vergleich zur Ausgangssubstanz” value ([1]; fragment after cleavage of the linker compared with Verbindung 1, Figures 2 and 3) was “deutlich schwächer aktiv als die Ausgangssubstanz”, the “Instabilität unter den gewählten pH-Bedingungen” value ([2]; chosen pH conditions (pH 6, pH 7,4 at 37°C; pH 9 at room temperature; 28 days)) was “Weder das verbleibende Fragment noch die Ausgangssubstanz Ciprofloxacin waren unter den gewählten pH-Bedingungen instabil” and the “antibiotische Aktivität in V. fischeri (Leuchthemmung)” value [3] was “deutliche Abschwächung der antibiotischen Aktivität nach Abspaltung des Linkers”.
For `CN1CCN(c2c(F)cc3c(=O)c(C(=O)O)cn4c3c2OCN4C)CC1` [Marbofloxacin], the “Instabilität bei niedrigem pH” value [4] was “kaum Instabilität beobachtet”.
In the case of `O=C(O)c1cn(C2CCCO2)c2cc(N3CCNCC3)c(F)cc2c1=O` (stereo not drawn) [Verbindung 1], the “Aktivität in anderen pathogenen Bakterien” value ([1]; other pathogenic bacteria, compared with quinolone generations) is reported as “über den Chinolonen der ersten Generation, aber unterhalb etablierter Fluorchinolone der zweiten Generation”, the “antibakterielle Aktivität” value ([1]; strains of E. coli, K. pneumoniae, P. aeruginosa and V. fischeri, compared with medium-strength fluoroquinolones) is reported as “zu mittelstarken Fluorchinolonen eine vergleichbare antibakterielle Aktivität” and the “Zytotoxizität in humanen Zellen (HEK 293)” value [5] is reported as “keine Hinweise auf einen Zytotoxizität”. For the same molecule, the MIC [6] was 0.1 to 1 µg/mL (≈ 0.277 to 2.77 µM), the “Abspaltung des labilen Linkers” value ([2]; at low pH) was “schnell” and the “Abbau des Hemiaminal-Restes” value ([2]; low pH of four (e.g. in urine)) was “zum größten Teil abgebaut”. The “Abbau des Hemiaminal-Restes” value ([2]; physiological conditions (pH= 7,4)) was “nur langsam abgebaut” and the “Abspaltung des labilen Linkers” value ([2]; under physiological conditions) was “langsam”.
